Measurements published in patent US20240228487A1, “FUSED HETEROCYCLIC COMPOUND AND APPLICATION THEREOF, PHARMACEUTICAL COMPOSITIONS CONTAINING SAME AND APPLICATION THEREOF” (ZHEJIANG UNIVERSITY, priority 2021, published 2024).
Structures can show the parent of a compound that is named as a salt.

Molecular target: T1, human TRPM2 channels (Homo sapiens, UniProt O94759)
T1 construct: expressed in transfected cells
Assay: whole cell patch clamp, inhibition of TRPM2 channel current
Format: cell-based
Conditions: HEK293 cells stably expressing human TRPM2, 500 μM ADPR
Experimental: The fused heterocyclic compound of the present invention has an inhibitory effect on the TRPM2 channel, and its pharmacological activity is measured using whole cell patch clamp technology, the corresponding steps are as follows: Incubating HEK293 cells stably expressing human TRPM2 channels in DMEM/F-12 medium containing 10% bovine serum, 50 units/mL of penicillin and […] of streptomycin under the condition of 5% CO2 and 37° C. The cells before testing are stored in the extracellular fluid (147 mM NaCl, 2 mM KCl, 1 mM MgCl2, 2 mM CaCl2, 10 mM HEPES, 13 mM glucose, pH 7.4). The electrode is filled with the electrode internal solution (147 mM NaCl, 0.05 mM EGTA, 1 mM MgCl2, 10 mM HEPES, 0.5 mM ADPR, pH=7.3), and the resistance is maintained at 3-5 M Ω. Administering ADPR into cells through electrodes, and detecting the ADPR concentration used to activate TRPM2 as 500 μM, when detecting a stable current, perfusing the corresponding concentration of fused heterocyclic compound II-1 into the extracellular fluid for at least 60 seconds. record the change in current magnitude using voltage ramp mode, changing the voltage from −100 mV to+100 mV within 500 ms, with a normal clamp voltage of 0 mV and a TRPM every 5 seconds; finally, replacing the extracellular fluid with a solution with pH=5.0 to block the TRPM2 current, the electrophysiological current test results obtained are shown in Table 1, and the electrophysiological current graph obtained is shown in FIG. 1. Similarly, administering corresponding concentrations of other fused heterocyclic compounds (II-2˜II-54, III-1˜III-11) into the extracellular fluid, taking electrophysiological tests using the same method, the results are shown in Table 1. The electrophysiological representative current graphs of some fused heterocyclic compounds (II-9, II-19, and II-36) inhibiting TRPM2 channel current are shown in FIG. 1.

T1 sequence (O94759 whole entry): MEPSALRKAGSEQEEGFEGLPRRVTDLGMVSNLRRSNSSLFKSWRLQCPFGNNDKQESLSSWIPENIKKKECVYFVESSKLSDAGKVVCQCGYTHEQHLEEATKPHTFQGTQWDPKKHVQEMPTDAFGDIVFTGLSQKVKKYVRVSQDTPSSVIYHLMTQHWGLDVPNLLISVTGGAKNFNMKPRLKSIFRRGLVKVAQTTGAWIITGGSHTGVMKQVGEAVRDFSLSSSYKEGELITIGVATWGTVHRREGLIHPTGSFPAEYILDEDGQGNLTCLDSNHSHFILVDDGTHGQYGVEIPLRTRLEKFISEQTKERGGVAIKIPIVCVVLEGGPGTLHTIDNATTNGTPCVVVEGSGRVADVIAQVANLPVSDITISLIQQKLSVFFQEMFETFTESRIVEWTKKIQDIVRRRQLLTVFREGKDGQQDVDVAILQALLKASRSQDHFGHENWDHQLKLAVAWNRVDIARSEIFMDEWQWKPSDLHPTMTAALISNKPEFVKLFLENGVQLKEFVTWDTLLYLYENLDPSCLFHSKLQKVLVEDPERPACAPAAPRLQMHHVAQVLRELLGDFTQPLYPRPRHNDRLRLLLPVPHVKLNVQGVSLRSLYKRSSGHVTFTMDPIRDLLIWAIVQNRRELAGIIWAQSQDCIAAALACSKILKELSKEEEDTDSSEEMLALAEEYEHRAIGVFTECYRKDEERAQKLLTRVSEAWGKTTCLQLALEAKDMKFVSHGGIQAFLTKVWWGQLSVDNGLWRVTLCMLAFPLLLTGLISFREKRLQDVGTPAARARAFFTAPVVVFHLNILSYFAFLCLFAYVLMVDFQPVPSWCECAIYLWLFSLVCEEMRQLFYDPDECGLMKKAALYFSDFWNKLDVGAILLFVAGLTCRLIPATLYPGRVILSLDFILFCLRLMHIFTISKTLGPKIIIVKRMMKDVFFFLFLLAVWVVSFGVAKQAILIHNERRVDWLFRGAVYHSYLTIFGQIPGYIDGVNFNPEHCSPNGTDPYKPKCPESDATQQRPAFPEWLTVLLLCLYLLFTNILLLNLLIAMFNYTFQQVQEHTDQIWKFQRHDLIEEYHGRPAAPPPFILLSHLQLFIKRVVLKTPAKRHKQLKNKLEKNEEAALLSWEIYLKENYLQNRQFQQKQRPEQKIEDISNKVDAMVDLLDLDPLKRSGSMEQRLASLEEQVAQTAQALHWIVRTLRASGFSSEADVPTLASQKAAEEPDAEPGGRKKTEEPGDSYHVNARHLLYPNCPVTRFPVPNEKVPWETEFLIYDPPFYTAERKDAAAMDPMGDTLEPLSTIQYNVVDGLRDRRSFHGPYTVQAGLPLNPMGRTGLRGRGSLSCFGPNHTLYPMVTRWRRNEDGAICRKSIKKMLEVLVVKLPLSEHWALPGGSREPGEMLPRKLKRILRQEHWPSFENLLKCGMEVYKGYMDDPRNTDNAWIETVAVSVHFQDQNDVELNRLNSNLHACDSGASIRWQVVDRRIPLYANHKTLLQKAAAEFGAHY

With “5-((octanyloxy) (phenyl) methyl) indolizine-7-ethyl carboxylate [II-49]” the IC50 was 20 to 50 µM.

With `CCCOC(=O)c1cc(C(=O)c2ccccc2)n2cccc2c1` [II-2, 5-benzoimide 7-carboxypropyl ester] the IC50 was 1 to 10 µM.

For `CC(=O)c1cc(C(=O)c2ccccc2)n2cccc2c1` [II-3, 1-(5-Benzimide-7-yl) ethane-1-ketone], the IC50 was 10 to 20 µM.

`COC(=O)c1cc(C(=O)c2ccc(F)cc2)n2cccc2c1` [II-4, 5-(4-Fluorobenzoyl) indolizine-7-methyl carboxylate] showed an IC50 of 10 to 20 µM.

Compound `CCOC(=O)c1cc(C(=O)c2ccc(F)cc2)n2cccc2c1` [II-5, 5-(4-fluorobenzoyl) indolizinee-7-ethyl carboxylate] has an IC50 of 10 to 20 µM.

`COC(=O)c1cc(C(=O)c2cccc(F)c2)n2cccc2c1` [II-6, 5-(3-Fluorobenzoyl)indolizine-7-methyl carboxylate] showed an IC50 of 1 to 10 µM.

`CCOC(=O)c1cc(C(=O)c2cccc(F)c2)n2cccc2c1` [II-7, 5-(3-fluorobenzoyl)indolizine-7-ethyl carboxylate] gave an IC50 of 1 to 10 µM.

`COC(=O)c1cc(C(=O)c2ccccc2F)n2cccc2c1` [II-8, 5-(2-Fluorobenzoyl) indolizine-7-methyl carboxylate] showed an IC50 of 1 to 10 µM.

With `CCOC(=O)c1cc(C(=O)c2cccc(Cl)c2)n2cccc2c1` [II-9, 5-(3-chlorobenzoyl) indolizine-7-ethyl carboxylate] the IC50 was 1 to 10 µM.

In the case of `CCOC(=O)c1cc(C(=O)c2cccc(Br)c2)n2cccc2c1` [II-10, 5-(3-bromobenzoyl) indolizine-7-Ethyl carboxylate], the IC50 is reported as 1 to 10 µM.

`CCOC(=O)c1cc(C(=O)c2cccc(C)c2)n2cccc2c1` [II-11, 5-(3-methylbenzoyl) indolizine-7-Ethyl carboxylate] showed an IC50 of 1 to 10 µM.

`CCOC(=O)c1cc(C(=O)c2cccc(OC)c2)n2cccc2c1` [II-12, Ethyl 5-(3-methoxybenzoyl) indolizine-7-carboxylate] was tested, and the IC50 was 10 to 20 µM.

With `COC(=O)c1cc(C(=O)c2ccco2)n2cccc2c1` [II-13, 5-(furan-2-carbonyl) indolizine-7-methyl carboxylate] the IC50 was 1 to 10 µM.

Work on `CCOC(=O)c1cc(C(=O)c2ccco2)n2cccc2c1` [II-14, 5-(furan-2-carbonyl) indolizine-7-ethyl carboxylate] yielded an IC50 of 1 to 10 µM.

`COC(=O)c1cc(C(=O)c2cccs2)n2cccc2c1` [II-15, 5-(thiophen-2-carbonyl)indolizine-7-methyl carboxylate] was tested, and the IC50 was 10 to 20 µM.

`CCOC(=O)c1cc(C(=O)c2cccs2)n2cccc2c1` [II-16, 5-(thiophen-2-carbonyl) indolizine-7-ethyl carboxylate] was tested, and the IC50 was 1 to 10 µM.

`COC(=O)c1cc(C(=O)c2ccccn2)n2cccc2c1` [II-17, 5-methylpyridinimide-7-methyl carboxylate] was tested, and the IC50 was 1 to 10 µM.

For `CCOC(=O)c1cc(C(=O)c2ccccn2)n2cccc2c1` [II-18, 5-methylpyridinimide-7-ethyl carboxylate], the IC50 was 1 to 10 µM.

Work on `O=C(O)c1cc(C(=O)c2ccccc2)n2cccc2c1` [II-19, 5-benzimide-7-carboxylic acid] yielded an IC50 of 10 to 20 µM.

Work on `NC(=O)c1cc(C(=O)c2ccccc2)n2cccc2c1` [II-20, 5-benzimide-7-formamide] yielded an IC50 of 10 to 20 µM.

`CCNC(=O)c1cc(C(=O)c2ccccc2)n2cccc2c1` [II-21, 5-benzoyl-N-ethylindolizine-7-formamide] showed an IC50 of 10 to 20 µM.

With `CN(C)C(=O)c1cc(C(=O)c2ccccc2)n2cccc2c1` [II-22, 5-benzoyl-N, N-dimethylindolizine-7-formamide] the IC50 was 10 to 20 µM.

For `CCN(C)C(=O)c1cc(C(=O)c2ccccc2)n2cccc2c1` [II-24, 5-Benzoyl-N-ethyl-N-methylindolizine-7-formamide], the IC50 was 1 to 10 µM.

For `CON(C)C(=O)c1cc(C(=O)c2ccccc2)n2cccc2c1` [II-25, 5-Benzoyl-N-methoxy-N-methylindolizine-7-formamide], the IC50 was 1 to 10 µM.

For `O=C(c1ccccc1)c1cc(C(=O)N2CCC2)cc2cccn12` [II-26, azetidine-1-yl (5-benzoimide 7-yl) ketone], the IC50 was 1 to 10 µM.

`O=C(c1ccccc1)c1cc(C(=O)N2CCCC2)cc2cccn12` [II-27, (5-benzoimide 7-yl) (pyrrolidine-1-yl) ketone] gave an IC50 of 10 to 20 µM.

Work on `O=C(c1ccccc1)c1cc(C(=O)N2CCCCC2)cc2cccn12` [II-28, (5-benzimide 7-yl) (piperidin-1-yl) ketone] yielded an IC50 of 10 to 20 µM.

In the case of `O=C(c1ccccc1)c1cc(C(=O)N2CCNCC2)cc2cccn12` [II-29, (5-benzoyl indolizine-7-yl) (piperazin-1-yl) ketone], the IC50 is reported as 20 to 50 µM.

Compound `O=C(c1ccccc1)c1cc(C(=O)N2CCOCC2)cc2cccn12` [II-30, (5-benzimide-7-yl) (morphyryl) ketone] has an IC50 of 20 to 50 µM.

`CN1CCN(C(=O)c2cc(C(=O)c3ccccc3)n3cccc3c2)CC1` [II-31, (5-Benzimide-7-yl) (4-methylpiperazin-1-yl) ketone] showed an IC50 of 10 to 20 µM.

Work on `CCN(CC)C(=O)c1cc(C(=O)c2ccccc2F)n2cccc2c1` [II-32, N, N-Diethyl-5-(2-fluorobenzoyl) indolizine-7-formamide] yielded an IC50 of 10 to 20 µM.

`O=C(c1ccccc1F)c1cc(C(=O)N2CCCC2)cc2cccn12` [II-33, (5-(2-fluorobenzoyl)indolizine-7-yl) (pyrrolidine-1-yl) ketone] was tested, and the IC50 was 10 to 20 µM.

In the case of `CCN(CC)C(=O)c1cc(C(=O)c2ccccn2)n2cccc2c1` [II-34, N, N-Diethyl-5-pyridylimide-7-formamide], the IC50 is reported as 1 to 10 µM.

Work on `O=C(c1ccccn1)c1cc(C(=O)N2CCCC2)cc2cccn12` [II-35] yielded an IC50 of 10 to 20 µM.

`O=C(c1ccccn1)c1cc(C(=O)N2CCNCC2)cc2cccn12` [II-36, (5-Pyridinyllin-2-yl) (Piperazin-1-yl) Methylketone] was tested, and the IC50 was 20 to 50 µM.

With `O=C(c1ccccc1)c1cc(C(=O)N2CCNCC2)cc2cccn12` [II-37, (5-Benzimide-7-yl) (piperazin-1-yl) ketone hydrochloride] the IC50 was 10 to 20 µM.

For `CCN(CC)C(=O)c1cc(C(=O)c2ccccn2)n2cccc2c1` [II-38, N,N-Diethyl-5-pyridylimide-7-formamide hydrochloride], the IC50 was 20 to 50 µM.

Work on `O=C(c1ccccn1)c1cc(C(=O)N2CCNCC2)cc2cccn12` [II-40, hydrochloride] yielded an IC50 of 10 to 20 µM.

Compound `CCOC(=O)c1cc(C(O)c2ccccc2)n2cccc2c1` (centres unmarked) [II-41] has an IC50 of 10 to 20 µM.

`O=C(O)c1cc(C(O)c2ccccc2)n2cccc2c1` (centres unmarked) [II-42] gave an IC50 of 10 to 20 µM.

`CCNC(=O)c1cc(C(O)c2ccccc2)n2cccc2c1` (centres unmarked) [II-43, N-ethyl-5-(hydroxy(phenyl)methyl) indolizine-7-formamide] gave an IC50 of 10 to 20 µM.

With `CN(C)C(=O)c1cc(C(O)c2ccccc2)n2cccc2c1` (centres unmarked) [II-44, 5-(hydroxy(phenyl)methyl)-N, N-dimethylindolizine-7-formamide] the IC50 was 10 to 20 µM.

Compound `CCN(CC)C(=O)c1cc(C(O)c2ccccc2)n2cccc2c1` (centres unmarked) [II-45, N,N-diethyl-5-(hydroxy(phenyl)methyl) indolizine-7-formamide] has an IC50 of 10 to 20 µM.

`CCN(C)C(=O)c1cc(C(O)c2ccccc2)n2cccc2c1` (centres unmarked) [II-46, N-ethyl-5-(hydroxy(phenyl)methyl)-N-methylindolizine-7-formamide] showed an IC50 of 10 to 20 µM.

Compound `CCOC(=O)c1cc(C(OC(C)=O)c2ccccc2)n2cccc2c1` (centres unmarked) [II-47, 5-(acetoxy (phenyl)methyl) indolizine-7-ethyl carboxylate] has an IC50 of 10 to 20 µM.

Compound `CCCC(=O)OC(c1ccccc1)c1cc(C(=O)OCC)cc2cccn12` (centres unmarked) [II-48] has an IC50 of 10 to 20 µM.

`CCN(CC)C(=O)c1cc(C(OC(C)=O)c2ccccc2)n2cccc2c1` (centres unmarked) [II-50] showed an IC50 of 10 to 20 µM.

`CCCC(=O)OC(c1ccccc1)c1cc(C(=O)N(CC)CC)cc2cccn12` (centres unmarked) [II-51] gave an IC50 of 20 to 50 µM.

In the case of `CCCCCCCC(=O)OC(c1ccccc1)c1cc(C(=O)N(CC)CC)cc2cccn12` (centres unmarked) [II-52], the IC50 is reported as 20 to 50 µM.

For `CCOC(=O)c1cc(C(OC)c2ccccc2)n2cccc2c1` (centres unmarked) [II-53], the IC50 was 1 to 10 µM.

In the case of `CCCOC(c1ccccc1)c1cc(C(=O)OCC)cc2cccn12` (centres unmarked) [II-54, 5-(Phenyl (Propyloxy) Methylindolizine-7-ethyl carboxylate], the IC50 is reported as 10 to 20 µM.

With `COC(=O)c1cc(C(=O)c2ccc(Cl)cc2)n2ccnc2c1` [III-2, 5-(4-chlorobenzoyl) imidazolo [1,2-a]pyridine-7-methyl carboxylate] the IC50 was 10 to 20 µM.

`COC(=O)c1cc(C(=O)c2ccc(C)cc2)n2ccnc2c1` [III-3, 5-(4-methylbenzoyl) imidazolo [1,2-a]pyridine-7-methyl carboxylate] showed an IC50 of 10 to 20 µM.

`CCOC(=O)c1cc(C(=O)c2ccccc2)n2ccnc2c1` [III-4, 5-benzimidazolo[1,2-a]pyridine-7-ethyl carboxylate] showed an IC50 of 10 to 20 µM.

Compound `O=C(O)c1cc(C(=O)c2ccccc2)n2ccnc2c1` [III-5, 5-benzimide azo [1,2-a]pyridine-7-carboxylic acid] has an IC50 of 10 to 20 µM.

Work on `CN(C)C(=O)c1cc(C(=O)c2ccccc2)n2ccnc2c1` [III-6, 5-Benzoyl-N,N-dimethylimidazole[1,2-a]pyridine-7-formamide] yielded an IC50 of 10 to 20 µM.
